System: HIV-1IIIB
Test: TCID50 determination of drug-treated HIV-1IIIB
Assay type: cell-based
Design: TCID50, XTT Endpoint / TCID50, RT Endpoint / TCID50, P24 Endpoint: unit not given here
[1] = 500 nM, compound removal at 120 minute
[2] = virus treated 15 minutes with 0.039 nM drug
[3] = virus treated 15 minutes with 0.125 nM drug
[4] = virus treated 15 minutes with 0.39 nM drug
[5] = virus treated 15 minutes with 1.25 nM drug
[6] = virus treated 15 minutes with 3.9 nM drug
[7] = virus treated 15 minutes with 12.5 nM drug
[8] = virus treated 15 minutes with 39.1 nM drug
[9] = virus treated 15 minutes with 125 nM drug
[10] = virus treated 2 hours with 125 nM drug
[11] = virus treated 2 hours with 250 nM drug
[12] = virus treated 2 hours with 500 nM drug
[13] = virus treated 2 hours with 1000 nM drug

CCCCCCCCCCCCCCCCOCCCOP(=O)(O)CO[C@H](C)Cn1cnc2c(N)ncnc21 [CMX157, Hexadecyloxypropyl-9-R-[2-(Phosphonomethoxy)Propyl]-Adenine]
Fold Decrease From VC, RT Endpoint [1]: (3.2) Fold
Fold Decrease From VC, XTT Endpoint [1]: (4.0) Fold
TCID50, P24 Endpoint [1]: 6398
TCID50, RT Endpoint [1]: 25588
TCID50, XTT Endpoint [1]: 1132
concentrations resulting in reduced infectivity (15 minutes incubation): ≥ 3.9 nM
reduction of viral replication (1000, 500, 250 or 125 nM, 2 hours): 2-4 fold
Fold Decrease From VC, P24 Endpoint [2]: (0) Fold
Fold Decrease From VC, RT Endpoint [2]: (1.0) Fold
Fold Decrease From VC, XTT Endpoint [2]: (1.1) Fold
TCID50, P24 Endpoint [2]: 36337
TCID50, RT Endpoint [2]: 157772
TCID50, XTT Endpoint [2]: 16145
Fold Decrease From VC, P24 Endpoint [3]: (0) Fold
Fold Decrease From VC, RT Endpoint [3]: (1.1) Fold
Fold Decrease From VC, XTT Endpoint [3]: (1.1) Fold
TCID50, P24 Endpoint [3]: 30411
TCID50, RT Endpoint [3]: 144887
TCID50, XTT Endpoint [3]: 16145
Fold Decrease From VC, P24 Endpoint [4]: (1.4) Fold
Fold Decrease From VC, RT Endpoint [4]: (1.6) Fold
Fold Decrease From VC, XTT Endpoint [4]: (1.4) Fold
TCID50, P24 Endpoint [4]: 21529
TCID50, RT Endpoint [4]: 102336
TCID50, XTT Endpoint [4]: 12795
Fold Decrease From VC, P24 Endpoint [5]: (0) Fold
Fold Decrease From VC, RT Endpoint [5]: (1.6) Fold
Fold Decrease From VC, XTT Endpoint [5]: (2.0) Fold
TCID50, P24 Endpoint [5]: 30411
TCID50, RT Endpoint [5]: 102336
TCID50, XTT Endpoint [5]: 9058
Fold Decrease From VC, P24 Endpoint [6]: (2.0) Fold
Fold Decrease From VC, RT Endpoint [6]: (1.6) Fold
Fold Decrease From VC, XTT Endpoint [6]: (4.0) Fold
TCID50, P24 Endpoint [6]: 15207
TCID50, RT Endpoint [6]: 102336
TCID50, XTT Endpoint [6]: 4529
Fold Decrease From VC, P24 Endpoint [7]: (5.6) Fold
Fold Decrease From VC, RT Endpoint [7]: (1.6) Fold
Fold Decrease From VC, XTT Endpoint [7]: (4.0) Fold
TCID50, P24 Endpoint [7]: 5383
TCID50, RT Endpoint [7]: 102336
TCID50, XTT Endpoint [7]: 4529
Fold Decrease From VC, P24 Endpoint [8]: (4.0) Fold
Fold Decrease From VC, RT Endpoint [8]: (2.5) Fold
Fold Decrease From VC, XTT Endpoint [8]: (3.6) Fold
TCID50, P24 Endpoint [8]: 7604
TCID50, RT Endpoint [8]: 64570
TCID50, XTT Endpoint [8]: 5082
Fold Decrease From VC, P24 Endpoint [9]: (4.0) Fold
Fold Decrease From VC, RT Endpoint [9]: (2.5) Fold
Fold Decrease From VC, XTT Endpoint [9]: (4.5) Fold
TCID50, P24 Endpoint [9]: 7604
TCID50, RT Endpoint [9]: 64570
TCID50, XTT Endpoint [9]: 4027
Fold Decrease From VC, P24 Endpoint [10]: (4.0) Fold
Fold Decrease From VC, RT Endpoint [10]: (1.6) Fold
Fold Decrease From VC, XTT Endpoint [10]: (4.0) Fold
TCID50, P24 Endpoint [10]: 9058
TCID50, RT Endpoint [10]: 51172
TCID50, XTT Endpoint [10]: 1132
Fold Decrease From VC, P24 Endpoint [11]: (3.4) Fold
Fold Decrease From VC, RT Endpoint [11]: (3.2) Fold
Fold Decrease From VC, XTT Endpoint [11]: (4.0) Fold
TCID50, P24 Endpoint [11]: 10765
TCID50, RT Endpoint [11]: 25588
TCID50, XTT Endpoint [11]: 1132
Fold Decrease From VC, P24 Endpoint [12]: (4.8) Fold
Fold Decrease From VC, RT Endpoint [12]: (2.2) Fold
Fold Decrease From VC, XTT Endpoint [12]: (4.0) Fold
TCID50, P24 Endpoint [12]: 7604
TCID50, RT Endpoint [12]: 36227
TCID50, XTT Endpoint [12]: 1132
Fold Decrease From VC, P24 Endpoint [13]: (4.8) Fold
Fold Decrease From VC, RT Endpoint [13]: (2.2) Fold
Fold Decrease From VC, XTT Endpoint [13]: (4.0) Fold
TCID50, P24 Endpoint [13]: 7604
TCID50, RT Endpoint [13]: 36227
TCID50, XTT Endpoint [13]: 1132
